Experimental data taken from ChEMBL document CHEMBL1212696, “Multienzyme docking in hybrid megasynthetases” (Nat Chem Biol, 2008).

Columns and labels:
[1] = Binding affinity to wild type Angiococcus disciformis PKS/NRPS expressed in Escherichia coli BL21 (DE3) by isothermal titration calorimetry
[2] = Binding affinity to wild type Angiococcus disciformis PKS/NRPS expressed in Escherichia coli BL21 (DE3) by surface plasmon resonance assay
[3] = Binding affinity to wild type Angiococcus disciformis PKS/NRPS R20A mutant expressed in Escherichia coli BL21 (DE3) by surface plasmon resonance assay
[4] = Binding affinity to wild type Angiococcus disciformis PKS/NRPS R27A mutant expressed in Escherichia coli BL21 (DE3) by surface plasmon resonance assay
[5] = Binding affinity to wild type Angiococcus disciformis PKS/NRPS R29A mutant expressed in Escherichia coli BL21 (DE3) by surface plasmon resonance assay
[6] = Binding affinity to wild type Angiococcus disciformis PKS/NRPS R20A/R27A mutant expressed in Escherichia coli BL21 (DE3) by surface plasmon resonance assay
[7] = Binding affinity to wild type Angiococcus disciformis PKS/NRPS R20A/R29A mutant expressed in Escherichia coli BL21 (DE3) by surface plasmon resonance assay
[8] = Binding affinity to wild type Angiococcus disciformis PKS/NRPS R27A/R29A mutant expressed in Escherichia coli BL21 (DE3) by surface plasmon resonance assay

With `CCCC(=O)OCN(C(=O)[C@@H](NC(=O)[C@H]1CCCCN1C)[C@@H](C)CC)[C@H](C[C@@H](OC(C)=O)c1nc(C(=O)N[C@@H](Cc2ccc(O)cc2)C[C@H](C)C(=O)O)cs1)C(C)C` [TUBULYSIN B] the Kd [1] was 47 µM, the Kd [2] was 46 µM and the Kd [3] was 59 µM. It also gave a Kd [4] of 121 µM, a Kd [5] of 453 µM and a Kd [6] of 114 µM. For the same compound, the Kd [7] was 596 µM and the Kd [8] was 282 µM.
